As a reminder, the viability is a read-out of living cells in per cent, often relative to untreated cells.

One test deals with 2LMP xenografts. The test can be described thus: TUNEL analysis of apoptosis in xenografts. It is filed as in vivo, athymic nude mice. The conditions noted are these: day 14; untreated 1%. The protocol:
One group of mice was untreated. The xeno grafts were dissected for the study of apoptosis on day 14 after tumor cell injection. The reason for the substantial reduction in treatment intensity compared to our standard treatment protocol was to allow adequate tumor tissue for analysis on day 14. Tunel assay for apoptosis in tumor xenografts was performed as follows. Five-micron paraffin sections of tissue were mounted on Superfrost/Plus slides and heated at 58° C. for 1 h. Tissue sections were deparaffinized in three changes of xylene and rehydrated with one change of absolute ethanol, 95% ethanol, and 70% ethanol, each in 5-min increments. Then, the sections were placed in Tris-buffered saline (0.5M Tris base, 0.15 M NaCl, 0.0002% Triton X-100, pH 7.6). Apoptotic nuclei were detected using an Apop Tag Peroxidase kit (Intergen, Purchase, N.Y.). Proteinase K (20 μg/ml in distilled deionized H2O) was added to the tissue specimens and incubated at room temperature for 15 min. Endogenous peroxidases were quenched with an aqueous solution of 3% hydrogen peroxide for 5 min. […] Approximately 10 random fields were evaluated for percentage of Tunel stained and percentage of intensely stained apoptotic bodies throughout the tissue.

Test [1] concerns 2LMP human breast cancer xenografts. The test can be described thus: 2LMP breast cancer xenografts in athymic nude mice. It is filed as in vivo. The protocol: Nude mice were inoculated s.c. with the human breast cancer cell line, 2LMP. Treatment with i.p. doses of 200 μg of 2E12 occurred on days 7, 10, 14, 17, 21, and 24 after tumor cell injection. Animals received i.v. adriamycin (doxorubicin) (6 mg/kg) on days 8, 12, and 16.
Athymic nude mice were injected s.c. with 3×10^7 2LMP cells. […] The growth of tumors was monitored over time. […] Tumor size and regression rates were determined.
Data from 6 independent experiments were analyzed by individual experiment. Treatment combinations were compared with respect to in vivo anti-tumor efficacy, i.e., inhibition of tumor growth, which was measured as three endpoints; extension of tumor doubling times, percentage of tumor regressions, and growth rates over time. The actual number of days at which the tumor doubled in surface area (product of two diameters) relative to baseline on day 7 after tumor cell injection was used in the doubling time analysis. The nonparametric Kruskal-Wallis test was used for median tumor doubling time comparisons between treatments. Fisher's exact test was used to compare the proportions of tumor regressions and relapse-free regressions across treatment groups. To determine if any combination therapy produced significant synergistic inhibition of tumor growth, i.e., more than additive, the growth curves from the serial area measurements were compared using a linear mixed model approach over the first 3 weeks after start of therapy (Lindsey, J. K. Models for Repeated Measurements, pp. 100-142, Oxford, 1993). To test for synergistic effects of the combination therapies, an interaction term was included in the model. If the interaction term was significant and the effect was inhibition of growth at a rate greater than additive then the interaction was considered synergistic.
A total of 166 animals, 10 treatment groups, and 6 independent experiments were included in the aggregate analysis. Treatment combinations were compared with respect to in vivo anti-tumor efficacy. The median tumor doubling times were analyzed using the Kruskal-Wallis test and Fisher's exact test was used to compare the proportions of tumor regressions and relapse-free regressions across treatment groups.

The subject of test [2] is Human prostate cancer cell line PC-3. The test is described as follows: Combination study with Paclitaxel, XTT. It is filed as cell-based. The conditions noted are these: 24 h. As to the method: Human prostate cancer cell line PC-3 is obtained from American Tissue Culture Collection (ATCC) and maintained in F-12K Nutrient Mixture (21127-022, Gibco BRL) containing 10% fetal bovine serum (FBS, Hyclone), 1% L-Glutamine-200 mM (25030-149, Gibco BRL) and 0.5% Penicillin Streptomycin Solution (P-7539, Sigma). RPMI1640 medium (MED-008, IWAKI) supplemented with 10% FBS and 0.5% Penicillin Streptomycin Solution is used in the following experiment. Exponentially growing PC-3 cells are collected by trypsinization and washed twice with fresh medium. The cells are then counted, resuspended in fresh medium at a density of 5×10^4 cells/ml and distributed in triplicate into flat-bottomed 96 well plates (3598, Coming-Coster) in a total volume of 100 μl/well one day before the start of the experiment. A representative anti-cancer drug, Paclitaxel (169-18611, Wako) dissolved in dimethylsulfoxide (10 mg/ml) is diluted in fresh medium and then added to the 96-well plates containing the cells at 50 μl/well. The final concentrations of dimethylsulfoxide are less than 0.1%. […] After incubation for a further 24 hr, 50 μl of Minimum Essential Medium (11095-098, Gibco BRL) containing 1 mg/ml of XTT and […] of PMS is added to the wells and the plates are incubated for 6 hr. OD450 is then measured by SPECTRA MAX 250 (Molecular Devices) and the cell viability is calculated as follows.
For orientation: Formazan colour is commonly taken as a measure of viable cells.

The next test relates to Jurkat cells. The test can be described thus: Apoptosis-inducing activity of humanized antibody, XTT. It counts as cell-based, human. The conditions noted are these: 12 hours. The protocol: Jurkat cells cultured in RPM11640 medium with 10% FCS (Gibco BRL) at 37° C. for 3 days in the presence of 5% CO2 are dispensed into each well of a 96-well microplate (Sumitomo Bakelite) at 50 μl per well. […] Each of the solutions of the expression products thus adjusted to 100 ng/ml is used to produce serial dilutions by repeating serial 2-fold dilution with RPM1640 containing 10% FCS. […] After reacting at 37° C. for 12 hours, 50 μl of 25 μM PMS (phenazine methosulfate; Sigma Chemical Co.) containing 1 mg/ml XTT (2,3-bis[2-methoxy-4-nitro-5-sulfophenyl]-2H-tetrazolium-5-carboxyaniride inner salt; Sigma Chemical Co.) is added (final concentrations of 250 μg/ml for XTT and 5 μM for PMS). After incubating for 3 hours, the absorbance at 450 nm of each well is measured to calculate the cell viability by using the reduction ability of mitochondria as the index.
The viability of the cells in each well is calculated according to the following formula: Viability (%)=100×(a−b)/(c−b) wherein “a” is the measurement of a test well, “b” is the measurement of a well with no cells, and “c” is the measurement of a well with no antibody added.
Jurkat cells cultured in RPMI1640 medium with 10% FCS (Gibco BRL) at 37° C. for 3 days in the presence of 5% CO2 are dispensed into each well of a 96-well microplate (Sumitomo Bakelite) at 50 μl per well. […]

[3] abbreviates: aggregate, number of animals (%).

For `CC(=O)O[C@H]1C(=O)[C@@]2(C)[C@H]([C@H](OC(=O)c3ccccc3)[C@]3(O)C[C@H](OC(=O)[C@H](O)[C@@H](NC(=O)c4ccccc4)c4ccccc4)C(C)=C1C3(C)C)[C@]1(OC(C)=O)CO[C@@H]1C[C@@H]2O` [Paclitaxel], the “intense TUNEL stained cells” value in the test on 2LMP xenografts came out at 2%. Further, in test [1] (setting [3]), the “Complete Regressions No relapse (%)” value was 0 and the “Complete Regressions Total (%)” value stood at 0. Besides, in test [1] (individual experiments (FIG. 25-27), animals), the “complete regressions of tumor” value was “none”. The viability at 0.0001 µg/mL in test [2] was greater than 40%.

B1: humanized TRA-8: humanized TRA-8, cotransfection of pHB14-1 and pSR/M2-1 (H2 type heavy chain, LM2 light chain) (antibody)
VH: EVMLVESGGGLVQPGGSLRLSCAASGFTFSSYVMSWVRQAPGKGLEWVATISSGGSYTYYPDSVKGRFTISRDNAKNTLYLQMNSLRAEDTAVYYCARRGDSMITTDYWGQGTLVTVSS
light: DIVMTQSPSSLSASVGDRVTITCKASQDVGTAVAWYQQKPGKAPKLLIYWASTRHTGVPSRFSGSGSGTDFTLTISSLQPEDFATYYCQQYSSYRTFGQGTKVEIKRTVAAPSVFIFPPSDEQLKSGTASVVCLLNNFYPREAKVQWKVDNALQSGNSQESVTEQDSKDSTYSLSSTLTLSKADYEKHKVYACEVTHQGLSSPVTKSFNRGEC
For B1, the apoptosis-inducing activity result in the test with Jurkat cells is recorded as “induce apoptosis”.

Values taken from patent US7476383B2, “Antibody selective for DR4 and uses thereof” (The UAB Research Foundation, priority 2000, dated 2009).
